Literature values as cited in PMC8513935.

Legend:
[1] = derived by the authors as gas->solvent minus gas->water (a hypothetical dry solvent; the ESI), not a two-phase measurement
[2] = log P octanol/water from commercial databases, averaged (the ESI); details: Octanol (wet), 25 C
[3] = experimental, compiled by the authors from the literature (the ESI cites the sources)

## CCCCCCCCC
[1]; 1,2-Dichloroethane, 25 C
  log K of transfer, water to solvent: 6.04 log10 K
[1]; Acetone, 25 C
  log K of transfer, water to solvent: 5.81 log10 K
[1]; Acetonitrile, 25 C
  log K of transfer, water to solvent: 5.15 log10 K
[1]; Butanone, 25 C
  log K of transfer, water to solvent: 6.05 log10 K
[1]; Butyronitrile, 25 C
  log K of transfer, water to solvent: 5.78 log10 K
[1]; CCl4, 25 C
  log K of transfer, water to solvent: 6.7 log10 K
[1]; Chlorobenzene, 25 C
  log K of transfer, water to solvent: 6.67 log10 K
[1]; Chloroform, 25 C
  log K of transfer, water to solvent: 6.57 log10 K
[1]; Cyclohexanone, 25 C
  log K of transfer, water to solvent: 5.99 log10 K
[1]; Dichloromethane, 25 C
  log K of transfer, water to solvent: 6.36 log10 K
[1]; Ethanol, 25 C
  log K of transfer, water to solvent: 5.67 log10 K
[1]; Hexadecane, 25 C
  log K of transfer, water to solvent: 6.33 log10 K
[1]; Hexane, 25 C
  log K of transfer, water to solvent: 6.66 log10 K
[1]; Methanol, 25 C
  log K of transfer, water to solvent: 5.38 log10 K
[1]; Perfluoroalkane, 25 C
  log K of transfer, water to solvent: 5.02 log10 K
[1]; Propan-1-ol, 25 C
  log K of transfer, water to solvent: 5.7 log10 K
[1]; Propan-2-ol, 25 C
  log K of transfer, water to solvent: 5.78 log10 K
[1]; Propionitrile, 25 C
  log K of transfer, water to solvent: 5.57 log10 K
[1]; Tetrahydrofuran, 25 C
  log K of transfer, water to solvent: 6.49 log10 K
[1]; Toluene, 25 C
  log K of transfer, water to solvent: 6.49 log10 K
[2]
  log K of transfer, water to solvent: 5.65 log10 K
[3]; 1,2-Dichloroethane, 25 C
  log K of transfer, gas to solvent: 3.89 log10 K
[3]; Acetonitrile, 25 C
  log K of transfer, gas to solvent: 3 log10 K
[3]; Butanone, 25 C
  log K of transfer, gas to solvent: 3.9 log10 K
[3]; Butyronitrile, 25 C
  log K of transfer, gas to solvent: 3.63 log10 K
[3]; CCl4, 25 C
  log K of transfer, gas to solvent: 4.55 log10 K
[3]; Chlorobenzene, 25 C
  log K of transfer, gas to solvent: 4.52 log10 K
[3]; Chloroform, 25 C
  log K of transfer, gas to solvent: 4.42 log10 K
[3]; Cyclohexanone, 25 C
  log K of transfer, gas to solvent: 3.84 log10 K
[3]; Dichloromethane, 25 C
  log K of transfer, gas to solvent: 4.21 log10 K
[3]; Ethanol, 25 C
  log K of transfer, gas to solvent: 3.52 log10 K
[3]; Hexadecane, 25 C
  log K of transfer, gas to solvent: 4.18 log10 K
[3]; Hexane, 25 C
  log K of transfer, gas to solvent: 4.51 log10 K
[3]; Methanol, 25 C
  log K of transfer, gas to solvent: 3.23 log10 K
[3]; Perfluoroalkane, 25 C
  log K of transfer, gas to solvent: 2.87 log10 K
[3]; Propan-1-ol, 25 C
  log K of transfer, gas to solvent: 3.55 log10 K
[3]; Propan-2-ol, 25 C
  log K of transfer, gas to solvent: 3.63 log10 K
[3]; Propanone, 25 C
  log K of transfer, gas to solvent: 3.66 log10 K
[3]; Propionitrile, 25 C
  log K of transfer, gas to solvent: 3.42 log10 K
[3]; Tetrahydrofuran, 25 C
  log K of transfer, gas to solvent: 4.34 log10 K
[3]; Toluene, 25 C
  log K of transfer, gas to solvent: 4.34 log10 K
[3]; Water, 25 C
  log K of transfer, gas to solvent: -2.15 log10 K

## CCCC(C)O (centres unmarked)
[1]; 1,2-Dichloroethane, 25 C
  log K of transfer, water to solvent: 0.78 log10 K
[1]; CCl4, 25 C
  log K of transfer, water to solvent: 0.23 log10 K
[1]; Hexadecane, 25 C
  log K of transfer, water to solvent: -0.38 log10 K
[2]
  log K of transfer, water to solvent: 1.25 log10 K
[3]; 1,2-Dichloroethane, 25 C
  log K of transfer, gas to solvent: 4 log10 K
[3]; CCl4, 25 C
  log K of transfer, gas to solvent: 3.45 log10 K
[3]; Hexadecane, 25 C
  log K of transfer, gas to solvent: 2.84 log10 K
[3]; Water, 25 C
  log K of transfer, gas to solvent: 3.22 log10 K

## CCCNCCC
[1]; Benzene, 25 C
  log K of transfer, water to solvent: 1.05 log10 K
[1]; Hexadecane, 25 C
  log K of transfer, water to solvent: 0.671 log10 K
[1]; Toluene, 25 C
  log K of transfer, water to solvent: 1.16 log10 K
[2]
  log K of transfer, water to solvent: 1.67 log10 K
[3]; Benzene, 25 C
  log K of transfer, gas to solvent: 3.73 log10 K
[3]; Hexadecane, 25 C
  log K of transfer, gas to solvent: 3.35 log10 K
[3]; Toluene, 25 C
  log K of transfer, gas to solvent: 3.84 log10 K
[3]; Water, 25 C
  log K of transfer, gas to solvent: 2.68 log10 K

## CCCC(C)C
[1]; 1,2-Dichloroethane, 25 C
  log K of transfer, water to solvent: 4.18 log10 K
[1]; Acetone, 25 C
  log K of transfer, water to solvent: 4.08 log10 K
[1]; Acetonitrile, 25 C
  log K of transfer, water to solvent: 3.66 log10 K
[1]; Butan-1-ol, 25 C
  log K of transfer, water to solvent: 4.13 log10 K
[1]; Butanone, 25 C
  log K of transfer, water to solvent: 4.23 log10 K
[1]; Butyronitrile, 25 C
  log K of transfer, water to solvent: 4.05 log10 K
[1]; CCl4, 25 C
  log K of transfer, water to solvent: 4.65 log10 K
[1]; Chlorobenzene, 25 C
  log K of transfer, water to solvent: 4.62 log10 K
[1]; Chloroform, 25 C
  log K of transfer, water to solvent: 4.55 log10 K
[1]; Cyclohexanone, 25 C
  log K of transfer, water to solvent: 4.14 log10 K
[1]; Dichloromethane, 25 C
  log K of transfer, water to solvent: 4.43 log10 K
[1]; Ethanol, 25 C
  log K of transfer, water to solvent: 4 log10 K
[1]; Hexadecane, 25 C
  log K of transfer, water to solvent: 4.34 log10 K
[1]; Hexane, 25 C
  log K of transfer, water to solvent: 4.66 log10 K
[1]; Methanol, 25 C
  log K of transfer, water to solvent: 3.79 log10 K
[1]; Pentan-1-ol, 25 C
  log K of transfer, water to solvent: 4.26 log10 K
[1]; Perfluoroalkane, 25 C
  log K of transfer, water to solvent: 3.65 log10 K
[1]; Propan-1-ol, 25 C
  log K of transfer, water to solvent: 3.99 log10 K
[1]; Propan-2-ol, 25 C
  log K of transfer, water to solvent: 4 log10 K
[1]; Propionitrile, 25 C
  log K of transfer, water to solvent: 3.92 log10 K
[1]; Tetrahydrofuran, 25 C
  log K of transfer, water to solvent: 4.54 log10 K
[1]; Toluene, 25 C
  log K of transfer, water to solvent: 4.49 log10 K
[2]
  log K of transfer, water to solvent: 3.73 log10 K
[3]; 1,2-Dichloroethane, 25 C
  log K of transfer, gas to solvent: 2.34 log10 K
[3]; Acetonitrile, 25 C
  log K of transfer, gas to solvent: 1.82 log10 K
[3]; Butan-1-ol, 25 C
  log K of transfer, gas to solvent: 2.29 log10 K
[3]; Butanone, 25 C
  log K of transfer, gas to solvent: 2.39 log10 K
[3]; Butyronitrile, 25 C
  log K of transfer, gas to solvent: 2.21 log10 K
[3]; CCl4, 25 C
  log K of transfer, gas to solvent: 2.81 log10 K
[3]; Chlorobenzene, 25 C
  log K of transfer, gas to solvent: 2.78 log10 K
[3]; Chloroform, 25 C
  log K of transfer, gas to solvent: 2.71 log10 K
[3]; Cyclohexanone, 25 C
  log K of transfer, gas to solvent: 2.3 log10 K
[3]; Dichloromethane, 25 C
  log K of transfer, gas to solvent: 2.59 log10 K
[3]; Ethanol, 25 C
  log K of transfer, gas to solvent: 2.16 log10 K
[3]; Hexadecane, 25 C
  log K of transfer, gas to solvent: 2.5 log10 K
[3]; Hexane, 25 C
  log K of transfer, gas to solvent: 2.82 log10 K
[3]; Methanol, 25 C
  log K of transfer, gas to solvent: 1.95 log10 K
[3]; Pentan-1-ol, 25 C
  log K of transfer, gas to solvent: 2.42 log10 K
[3]; Perfluoroalkane, 25 C
  log K of transfer, gas to solvent: 1.81 log10 K
[3]; Propan-1-ol, 25 C
  log K of transfer, gas to solvent: 2.15 log10 K
[3]; Propan-2-ol, 25 C
  log K of transfer, gas to solvent: 2.16 log10 K
[3]; Propanone, 25 C
  log K of transfer, gas to solvent: 2.24 log10 K
[3]; Propionitrile, 25 C
  log K of transfer, gas to solvent: 2.08 log10 K
[3]; Tetrahydrofuran, 25 C
  log K of transfer, gas to solvent: 2.7 log10 K
[3]; Toluene, 25 C
  log K of transfer, gas to solvent: 2.65 log10 K
[3]; Water, 25 C
  log K of transfer, gas to solvent: -1.84 log10 K
